# Experimental data as given in PubChem BioAssay (NCI).
#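 GI50 marks 50% less growth. The concentration for full growth arrest is given as TGI.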
# Tests used:
# Experiment in all cases: inhibition of tumour cell growth, NCI panel, 384-well format
# [1] = test system: LOX IMVI melanoma
# [2] = test system: 786-0 renal
# [3] = test system: SF-268 CNS
# [4] = test system: MCF7 breast
# [5] = test system: SW-620 colon
# [6] = test system: DU-145 prostate
# [7] = test system: A498 renal
# [8] = test system: IGROV1 ovarian
# [9] = test system: HT29 colon
# [10] = test system: T-47D breast
# [11] = test system: MOLT-4 leukemia
# [12] = test system: NCI-H322M lung
# [13] = test system: U251 glioblastoma
# [14] = test system: RXF 393 renal
# [15] = test system: NCI-H460 NSCLC
# [16] = test system: MDA-MB-435 melanoma
# [17] = test system: SNB-75 CNS
# [18] = test system: OVCAR-8 ovarian
# [19] = test system: BT-549 breast
# [20] = test system: OVCAR-4 ovarian
# [21] = test system: A549 NSCLC
# [22] = test system: TK-10 renal
# [23] = test system: HCC-2998 colon
# [24] = test system: SN12C renal
# [25] = test system: HOP-92 NSCLC
# [26] = test system: MDA-MB-468 breast
# [27] = test system: ACHN renal
# [28] = test system: HL-60(TB) leukemia
# [29] = test system: SK-MEL-2 melanoma
# [30] = test system: M14 melanoma
# [31] = test system: PC-3 prostate
# [32] = test system: HOP-62 NSCLC
# [33] = test system: RPMI-8226 leukemia
# [34] = test system: K-562 leukemia
# [35] = test system: UACC-257 melanoma
# [36] = test system: CAKI-1 renal
# [37] = test system: SNB-19 CNS
# [38] = test system: NCI-H23 lung
# [39] = test system: OVCAR-3 ovarian
# [40] = test system: COLO 205 colon
# [41] = test system: HS 578T breast
# [42] = test system: MALME-3M melanoma
# [43] = test system: SK-MEL-28 melanoma
# [44] = test system: SK-OV-3 ovarian
# [45] = test system: HCT-116 colon
# [46] = test system: UACC-62 melanoma
# [47] = test system: NCI/ADR-RES ovarian
smiles,measurement,setting,value
O=S(=O)(c1ccc2c(c1)C(=NO)c1cc(S(=O)(=O)N3CCCCC3)ccc1-2)N1CCCCC1,GI50,[1],17.2 nM
same,TGI,[1],32 nM
same,GI50,[2],223 nM
same,TGI,[2],525 nM
same,GI50,[3],165 nM
same,TGI,[3],303 nM
same,GI50,[4],187 nM
same,TGI,[4],334 nM
same,GI50,[5],182 nM
same,TGI,[5],323 nM
same,GI50,[6],177 nM
same,TGI,[6],318 nM
same,GI50,[7],1490 nM
same,TGI,[7],3100 nM
same,GI50,[8],162 nM
same,TGI,[8],306 nM
same,GI50,[9],184 nM
same,TGI,[9],326 nM
same,GI50,[10],155 nM
same,TGI,[10],290 nM
same,GI50,[11],168 nM
same,TGI,[11],306 nM
same,GI50,[12],178 nM
same,TGI,[12],320 nM
same,GI50,[13],189 nM
same,TGI,[13],341 nM
same,GI50,[14],118 nM
same,TGI,[14],242 nM
same,GI50,[15],170 nM
same,TGI,[15],314 nM
same,GI50,[16],183 nM
same,TGI,[16],323 nM
same,GI50,[17],184 nM
same,TGI,[17],324 nM
same,GI50,[18],153 nM
same,TGI,[18],288 nM
same,GI50,[19],179 nM
same,TGI,[19],319 nM
same,GI50,[20],17.9 nM
same,TGI,[20],34.4 nM
same,GI50,[21],171 nM
same,TGI,[21],315 nM
same,GI50,[22],187 nM
same,TGI,[22],336 nM
same,GI50,[23],166 nM
same,TGI,[23],303 nM
same,GI50,[24],181 nM
same,TGI,[24],323 nM
same,GI50,[25],116 nM
same,TGI,[25],242 nM
same,GI50,[26],58.4 nM
same,TGI,[26],171 nM
same,GI50,[27],17.6 nM
same,TGI,[27],31.6 nM
same,GI50,[28],16.9 nM
same,TGI,[28],30.9 nM
same,GI50,[29],196 nM
same,TGI,[29],339 nM
same,GI50,[30],170 nM
same,TGI,[30],308 nM
same,GI50,[31],165 nM
same,TGI,[31],303 nM
same,GI50,[32],97.6 nM
same,TGI,[32],216 nM
same,GI50,[33],106 nM
same,TGI,[33],226 nM
same,GI50,[34],170 nM
same,TGI,[34],313 nM
same,GI50,[35],180 nM
same,TGI,[35],320 nM
same,GI50,[36],19 nM
same,TGI,[36],35.2 nM
same,GI50,[37],189 nM
same,TGI,[37],332 nM
same,GI50,[38],92.7 nM
same,TGI,[38],228 nM
same,GI50,[39],146 nM
same,TGI,[39],281 nM
same,GI50,[40],184 nM
same,TGI,[40],325 nM
same,GI50,[41],175 nM
same,TGI,[41],314 nM
same,GI50,[42],179 nM
same,TGI,[42],321 nM
same,GI50,[43],171 nM
same,TGI,[43],309 nM
same,GI50,[44],169 nM
same,TGI,[44],308 nM
same,GI50,[45],173 nM
same,TGI,[45],316 nM
same,GI50,[46],182 nM
same,TGI,[46],323 nM
same,GI50,[47],342 nM
same,TGI,[47],1140 nM
